Measured values: patent US20030157208A1, “Cynomoriaceae extract and use in treating erectile dysfunction” (priority 2001, published 2003)
≈ marks a conversion by molar mass, not a printed value.

System: rat corpus cavernosum tissue
Assay: Relaxation of norepinephrine-precontracted isolated rat corpus cavernosum strips (organ bath)
Format: cell-based, Sprague-Dawley (SD) rats
Experimental: The extracts of this invention may be tested for their activity for alleviating or preventing symptoms erectile dysfunction by techniques known in the art. The test is similar to the endothelium-dependent vasorelaxatin test reported by Fitzpatrick et al., 1995. In general, in accordance with this protocol, plant extracts are tested for endothelium-dependent relaxation (EDR) by measuring the relaxation or contraction imparted by diluted samples to an appropriate tissue sample precontacted by norepinephrine to arrive at an EDR value that is the percentage of relaxation imparted. […] Experiments were performed on male, eight to twelve week old, 278.86±6.85 g Sprague-Dawley (SD) rats. Rats were housed in an animal care facility at the College of Medicine, University of Saskatchewan. Rats were anaesthetized with sodium pentobarbital (50 mg/kg) by intraperitoneal injection. The whole penis of one rat (shown at 10 in FIG. 3A) was gently dissected out and put into a Petri dish containing ice-cold Krebs' solution. The portion of the penis used for the experiments is shown generally at 12 in FIG. 3A. The penis was cleaned and the connective tissues were removed. The section 12 was prepared for testing as a proximal section (10 mm in length) of the corpus cavernosum 18, which was cut longitudinally into two pieces and the size of each piece was about 1×1×10 mm. […] The pH of this bath solution 23 was adjusted to 7.2. The corpus cavemosum strips 19 were tied with silk threads 24 at each end with one end immobilized at 26 on the inner wall of the organ bath chamber 20, and the other hooked to a transducer 28 (FT 03, Grass Ins. Co., Quincy). […] Strips 19 were contracted with 10 μM norepinephrine. After the plateau phase of contraction had been reached, the cumulative concentration-response relationships of BuSY and BuSY608 were tested. […] As a control and comparison compound, sildenafil ([…]®) was also used to test the penile tissue response (tissues prepared as above). […]

EC50 (Rattus norvegicus, strips precontracted with 10 μM norepinephrine, cumulative concentration-response, n=6): 11.4 µg/mL (≈ 24 µM)
SMILES: CCCc1nn(C)c2c(=O)[nH]c(-c3cc(S(=O)(=O)N4CCN(C)CC4)ccc3OCC)nc12 [sildenafil]
maximal relaxation (induced by 200 μg/ml, norepinephrine-precontracted strips, n=6): 66.7±6.1% | concentration at which relaxation was initiated (norepinephrine-precontracted strips, cumulative concentration ladder): 0.6 µg/mL
